The structures appear in SMILES notation. A value given as a limit tells only on which side of the number the result lay.

The test system of the first assay is Wnt/β-catenin signaling pathway (Wnt-responsive SP5 promoter luciferase reporter in SW480 cells). Put plainly: Wnt reporter (SP5 promoter-firefly luciferase) activation assay in SW480 cells. The class given is cell-based. The conditions noted are these: Homo sapiens; SW480 colon cancer cells with SP5 promoter luciferase reporter; 24 h after compound addition; normalized to DMSO; concentration at half maximal activation. Here is the method: Compounds that enhance the Wnt activity, or Activators, were assayed as follows. Reporter cell lines were generated by stably transducing cells of colon cancer cell lines (with a lentiviral construct that included a Wnt-responsive promoter driving expression of the firefly luciferase gene).
Lentiviral constructs were made in which the SP5 promoter, a promoter having eight TCF/LEF binding sites derived from the SP5 promoter, was linked upstream of the firefly luciferase gene. The lentiviral constructs also included a hygromycin resistance gene as a selectable marker. The SP5 promoter construct was used to transduce SW480 cells, a colon cancer cell line having a mutated APC gene that generates a truncated APC protein, leading to de-regulated accumulation of β-catenin.
Cultured SW480 cells bearing a reporter construct were distributed at approximately 10,000 cells per well into 384- or 96-well multiwell plates. Compounds from a small molecule compound library were then added to the wells in half-log dilutions using a maximum concentration of three or ten micromolar. A series of control wells for each cell type received only buffer and compound solvent DMSO. Twenty-four hours after the addition of compound, reporter activity for luciferase was assayed, for example, by addition of the BrightGlo luminescence reagent (Promega) and the Victor3 plate reader (Perkin Elmer). Readings were normalized to DMSO only treated cells, and any activities above DMSO were considered activation. Compounds were considered activators if reporter activities were 2× fold or greater than DMSO. EC50 is the concentration at half maximal activation.
A general note: In a reporter assay the amount or activity of a reporter protein is the signal.
One may read the EC50 as the midpoint of the concentration-response curve. A low value points to higher potency in that assay. In turn, `O=C(CCC(=O)c1ccc2c(c1)SCCO2)c1ccc(C(F)(F)F)cc1` [Compound 18, 1-(2,3-Dihydrobenzo[b][1,4]oxathiin-6-yl)-4-(4-(trifluoromethyl)phenyl)butane-1,4-dione] had an EC50 of more than 10000 nM.
Same read-out and setting: then `O=C(CCC(=O)c1ccc2c(c1)OC(F)(F)O2)c1ccccc1` [Compound 235, 1-(2,2-Difluorobenzo[d][1,3]dioxol-5-yl)-4-phenylbutane-1,4-dione], with 494 nM.
Still for that read-out and setting: then `O=C(CCC(=O)c1ncccn1)c1ccc2c(c1)CCCC2` [Compound 737, 1-(Pyrimidin-2-yl)-4-(5,6,7,8-tetrahydronaphthalen-2-yl)butane-1,4-dione], with 22 nM; and `COc1ccccc1C(=O)CCC(=O)c1c[nH]c2ccccc12` [Compound 319, 1-(1H-Indol-3-yl)-4-(2-methoxyphenyl)butane-1,4-dione], with 279 nM.
The molecule `COc1ccccc1C(=O)CCC(=O)c1ccc2[nH]ccc2c1` [Compound 255, 1-(1H-Indol-5-yl)-4-(2-methoxyphenyl)butane-1,4-dione] showed an EC50 of 17 nM.
Still for that read-out and setting: to `Cc1ccccc1C(=O)CCC(=O)c1c[nH]c2ccccc12` [Compound 518, 1-(1H-Indol-3-yl)-4-(o-tolyl)butane-1,4-dione] belongs 646 nM; to `O=C(CCC(=O)c1cccc2c1OCCO2)c1ccc(C(F)(F)F)cc1` [Compound 238, 1-(2,3-Dihydrobenzo[b][1,4]dioxin-5-yl)-4-(4-(trifluoromethyl)phenyl)butane-1,4-dione], more than 10000 nM.
Same read-out and setting: to `COc1ccc(C(=O)CCC(=O)c2ccncn2)cc1OC` [Compound 432, 1-(3,4-Dimethoxyphenyl)-4-(pyrimidin-4-yl)butane-1,4-dione] belongs 4800 nM.
Regarding `O=C(CCC(=O)c1cccc2c1OCCO2)c1ccccc1` [Compound 248, 1-(2,3-Dihydrobenzo[b][1,4]dioxin-5-yl)-4-phenylbutane-1,4-dione], the EC50 is more than 10000 nM.
Still for that read-out and setting: then `O=C(CCC(=O)c1ccccc1C(F)(F)F)c1ccc2c(c1)CCCO2` [Compound 68, 1-(Chroman-6-yl)-4-(2-(trifluoromethyl)phenyl)butane-1,4-dione], with 6 nM.
On the same count and under the same terms, then `COc1ccc(C(=O)CCC(=O)c2ncccn2)cc1OC` [Compound 431, 1-(3,4-Dimethoxyphenyl)-4-(pyrimidin-2-yl)butane-1,4-dione], with more than 10000 nM; and `Cc1ccc(C(=O)CCC(=O)c2ccc3[nH]ncc3c2)cc1` [Compound 503, 1-(1H-Indazol-5-yl)-4-(p-tolyl)butane-1,4-dione], with 487 nM; and `O=C(CCC(=O)c1ccc2[nH]ccc2c1)c1ccccc1` [Compound 261, 1-(1H-indol-5-yl)-4-phenylbutane-1,4-dione], with 42 nM.
On the same count and under the same terms, to `O=C(CCC(=O)c1ccc2c(c1)OCCO2)c1cccc(F)c1` [Compound 11, 1-(2,3-Dihydrobenzo[b][1,4]dioxin-6-yl)-4-(3-fluorophenyl)butane-1,4-dione] belongs 13 nM; to `Cc1ccc(C(=O)CCC(=O)c2ccc3occc3c2)cc1` [Compound 457, 1-(Benzofuran-5-yl)-4-(p-tolyl)butane-1,4-dione], 2890 nM; to `O=C(CCC(=O)c1ccccc1F)c1cccs1` [Compound 557, 1-(2-Fluorophenyl)-4-(thiophen-2-yl)butane-1,4-dione], 26 nM.
The molecule `COc1ccccc1C(=O)CCC(=O)c1ccc2c(c1)OCO2` [Compound 216, 1-(Benzo[d][1,3]dioxol-5-yl)-4-(2-methoxyphenyl)butane-1,4-dione] registered an EC50 of 11 nM.
Regarding `O=C(CCC(=O)c1ccccc1F)c1ccc2[nH]cnc2c1` [Compound 265, 1-(1H-Benzo[d]imidazol-5-yl)-4-(2-fluorophenyl)butane-1,4-dione], the EC50 came to 201 nM.
The same measure, in the same setting: then `Cc1ccccc1C(=O)CCC(=O)c1ccc2[nH]ccc2c1` [Compound 445, 1-(1H-indol-5-yl)-4-(o-tolyl)butane-1,4-dione], with 10 nM.
Same read-out and setting: then `O=C(CCC(=O)c1cccs1)c1ccc2c(c1)CCCO2` [Compound 364, 1-(Chroman-6-yl)-4-(thiophen-2-yl)butane-1,4-dione], with 13 nM; and `O=C(CCC(=O)c1ccc2c(c1)CCCO2)c1ccccc1` [Compound 80, 1-(Chroman-6-yl)-4-phenylbutane-1,4-dione], with 10 nM; and `O=C(CCC(=O)c1ccco1)c1ccc2c(c1)OC(F)(F)O2` [Compound 385, 1-(2,2-Difluorobenzo[d][1,3]dioxol-5-yl)-4-(furan-2-yl)butane-1,4-dione], with 165 nM.
On the same count and under the same terms, then `O=C(CCC(=O)c1ccccc1C(F)(F)F)c1ccc2[nH]ccc2c1` [Compound 249, 1-(1H-Indol-5-yl)-4-(2-(trifluoromethyl)phenyl)butane-1,4-dione], with 4 nM.
As to `O=C(CCC(=O)c1ncccn1)c1ccc2c(c1)CCCO2` [Compound 362, 1-(Chroman-6-yl)-4-(pyrimidin-2-yl)butane-1,4-dione], it took 188 nM to reach a half-maximal effect (EC50).
On the same count and under the same terms, then `O=C(CCC(=O)c1ccc2c(c1)CCCO2)c1cccc(C(F)(F)F)c1` [Compound 69, 1-(Chroman-6-yl)-4-(3-(trifluoromethyl)phenyl)butane-1,4-dione], with more than 10000 nM; and `Cc1ccc(C(=O)CCC(=O)c2ccc3[nH]ccc3c2)cc1` [Compound 447, 1-(1H-Indol-5-yl)-4-(p-tolyl)butane-1,4-dione], with more than 10000 nM; and `O=C(CCC(=O)c1ccco1)c1ccccn1` [Compound 554, 1-(Furan-2-yl)-4-(pyridin-2-yl)butane-1,4-dione], with more than 10000 nM.
Same read-out and setting: then `COc1ccccc1C(=O)CCC(=O)c1cccs1` [Compound 562, 1-(2-Methoxyphenyl)-4-(thiophen-2-yl)butane-1,4-dione], with 106 nM; and `O=C(CCC(=O)c1ccc2c(c1)OCCO2)c1cncnc1` [Compound 345, 1-(2,3-Dihydrobenzo[b][1,4]dioxin-6-yl)-4-(pyrimidin-5-yl)butane-1,4-dione], with more than 10000 nM.
Still for that read-out and setting: then `O=C(CCC(=O)c1ccccn1)c1ccc2c(c1)OC(F)(F)O2` [Compound 232, 1-(2,2-Difluorobenzo[d][1,3]dioxol-5-yl)-4-(pyridin-2-yl)butane-1,4-dione], with 134 nM.
`O=C(CCC(=O)c1ccc2[nH]ncc2c1)c1ccc(F)cc1` [Compound 497, 1-(4-Fluorophenyl)-4-(1H-indazol-5-yl)butane-1,4-dione] displayed an EC50 of 48 nM.
Same read-out and setting: then `O=C(CCC(=O)c1ccccn1)c1ccc2[nH]ccc2c1` [Compound 258, 1-(1H-Indol-5-yl)-4-(pyridin-2-yl)butane-1,4-dione], with 16 nM.
On the same count and under the same terms, to `O=C(CCC(=O)c1ccc2c(c1)OCCO2)c1cccc(C(F)(F)F)c1` [Compound 9, 1-(2,3-Dihydrobenzo[b][1,4]dioxin-6-yl)-4-(3-(trifluoromethyl)phenyl)butane-1,4-dione] belongs 100 nM; to `COc1ccccc1C(=O)CCC(=O)c1ccc2occc2c1` [Compound 281, 1-(Benzofuran-5-yl)-4-(2-methoxyphenyl)butane-1,4-dione], 61 nM; to `O=C(CCC(=O)c1ccccc1F)c1ccc2[nH]ccc2c1` [Compound 252, 1-(2-Fluorophenyl)-4-(1H-indol-5-yl)butane-1,4-dione], 1 nM.
For the molecule `COc1ccccc1C(=O)CCC(=O)c1ccc2c(c1)OCCO2` [Compound 12, 1-(2,3-Dihydrobenzo[b][1,4]dioxin-6-yl)-4-(2-methoxyphenyl)butane-1,4-dione], the EC50 came out at 5 nM.
Same read-out and setting: then `COc1cccc(C(=O)CCC(=O)c2ccc3c(c2)OCCO3)c1` [Compound 13, 1-(2,3-Dihydrobenzo[b][1,4]dioxin-6-yl)-4-(3-methoxyphenyl)butane-1,4-dione], with 192 nM.

Still in this assay, the particulars now being: SW480 colon cancer cells with SP5 promoter luciferase reporter; 24 h after compound addition; normalized to DMSO; concentration at half maximal activation.
Molecule `O=C(CC(=O)c1cc(O)c2c(c1O)OCCO2)c1ccccc1` [Compound 3, 1-(5,8-dihydroxy-2,3-dihydrobenzo[b][1,4]dioxin-6-yl)-3-phenylpropane-1,3-dione] returned an EC50 of more than 10000 nM.

These data come from US10457672B2, “γ-diketones as Wnt/β-catenin signaling pathway activators” (Samumed, LLC, priority 2013, dated 2019).
